The subject of data set [1] is mitochondrial membrane potential in PQ-treated Neuro-2a cells. Kind of data set: Mitochondrial membrane potential detection (TMRM) in PQ-treated Neuro-2a cells. In kind it is cell-based, mouse. The note with it: compound 10 μM, PQ 500 µM 1 h. Here is the method:
The cells (1 × 10^4 cells/well of a 96-well plate) were incubated with compound solutions (1 and 10 µM) during 1 h. Then, PQ was added to cell suspension to a resulting concentration of 500 µM for incubation during 1 h. Cells incubated without PQ and compounds and with PQ alone were used as positive and negative controls, respectively. The tetramethylrhodamine methyl (TMRM) (Sigma-Aldrich, St. Louis, MO, USA) solution at 500 nM was added in each well and cells were incubated for 30 min at 37 °C. The intensity of fluorescence was measured with a PHERAstar FS plate reader (BMG Labtech, Ortenberg, Germany) at λex = 540 nm and λem = 590 nm. The data were processed by MARS Data Analysis v. 3.01R2 (BMG Labtech, Ortenberg, Germany). The results were presented as percent of positive control data.

Data set [2] has as its system PQ-treated Neuro-2a cells. Kind of data set: Propidium iodide straining of PQ-treated Neuro-2a cells (membrane permeability). In kind it is cell-based, mouse. The note with it: PQ-treated cells, 24 h. The method, then: The cells (1 × 10^4 cells/well) were seeded in black 96-well plates before testing. After incubation of the cells with compounds and PQ during 24 h, PI solution (10 μg/mL) was added to each well and the plate was incubated in the dark at 37 °C for 10 min. Cells were washed with phosphate buffer saline (PBS) (BioloT, St.Peterburg, Russia) and fluorescence was measured with a Fluoroskan Ascent plate reader (Thermo Labsystems, Helsinki, Finland) at […]. All manipulations with fluorescent probes were carried out in a darkened room. The results were presented as percent of positive control data.

Data set [3] is described as follows: Cytotoxicity toward Neuro-2a cells (MTT assay). The settings on record: mouse, Neuro-2a neuroblastoma cells, 24 h. The format is cell-based, mouse. Here is the method: (§1) The cells of mouse neuroblastoma cell line Neuro-2a (ATCC® CCL-131™; American Type Culture Collection, Manassas, VA, USA) were cultured in Dulbecco’s modified Eagle’s medium (DMEM) containing 10% fetal bovine serum (Biolot, St. Petersburg, Russia) and 1% penicillin/streptomycin (Biolot, St. Petersburg, Russia) at 37 °C in a humidified atmosphere with 5% (v/v) CO2. Initially, cells were incubated in cultural flasks until sub-confluent (~80%). For testing, Neuro-2a cells were seeded in 96- or 6-well plates and experiments were started after 24 h.
(§2) The cells (1 × 10^4 cells/well of a 96-well plate) were incubated with different concentrations of studied compounds during 24 h. After that, cell viability was determined by the MTT (3-(4,5-dimethylthiazol-2-yl)-2,5-diphenyltetrazolium bromide) method according to the manufacturer’s instructions (Sigma-Aldrich, St. Louis, MO, USA). Absorbance of the converted formazan was measured using a Multiskan FC microplate photometer (Thermo Scientific, Waltham, MA, USA) at λ = 570 nm. The results were presented as percent of control data, and concentration of cell viability inhibition on 50% (IC50) was calculated.

The subject of another data set is Neuro-2a cells. In words: Cytotoxicity toward Neuro-2a cells (MTT assay). The format is cell-based, mouse. The note with it: Neuro-2a cells, 100 μM, MTT assay. The method, then:
as §1, §2
For orientation: Formazan colour is commonly taken as a measure of viable cells.

Data set [4] concerns ROS level in PQ-treated Neuro-2a cells. In words: ROS level analysis in PQ-treated Neuro-2a cells (H2DCFDA). In kind it is cell-based, mouse. The note with it: tested at 1 and 10 μM, PQ 500 µM 1 h. The method, then:
The cells (1 × 10^4 cells/well of a 96-well plate) were incubated with compound solutions (1 and 10 µM) during 1 h. Then, PQ was added to cell suspension to a resulting concentration of 500 µM for incubation during 1 h. Cells incubated without PQ and compounds and with PQ alone were used as positive and negative controls, respectively. The 20 µL of 2,7-dichlorodihydrofluorescein diacetate solution (H2DCFDA, Molecular Probes, Eugene, OR, USA) was added to each well (10 µM, final concentration) and the plate was incubated for an additional 10 min at 37 °C. The intensity of dichlorofluorescin fluorescence was measured with a PHERAstar FS plate reader (BMG Labtech, Ortenberg, Germany) at λex = 485 nm and λem = 518 nm. The data were processed by MARS Data Analysis v. 3.01R2 (BMG Labtech, Ortenberg, Germany). The results were presented as percent of positive control data.

In data set [5] the test system is Hsp70 level in Neuro-2a cells. In words: Hsp70 level analysis by Western blot in Neuro-2a cells. In kind it is cell-based, mouse. The settings on record: compound 10 µM 1 h, then PQ 500 µM 24 h. The method, then:
The Hsp70 expression was detected by Western blot analysis. Cell suspensions (1.6 × 10^5 cells/well of a 6-well plate) were seeded and treated with studied compounds at a concentration of 10 µM for 1 h. After that, PQ (500 µM) was added and cells were incubated during 24 h. Cells incubated without PQ and compounds and with PQ alone were used as positive and negative controls, respectively. Cells were washed by cold PBS (BioloT, Russia) twice and lysed by radioimmunoprecipitation assay (RIPA) buffer (BioloT, St. Peterburg, Russia). The amount of proteins was measured by the Bradford method and equal samples (25 µg) were prepared using sample buffer. Proteins were separated with sodium dodecyl sulphate (SDS) electrophoresis in 10% polyacrylamide gel. The electrophoretically separated proteins were transferred onto the polyvinylidene difluoride (PVDF) membrane Whatman (Sigma-Aldrich, St. Louis, MO, USA) using a semi-dry transfer apparatus (Helicon, Moscow, Russia). […] The peroxidase reaction was visualized by an enhanced chemiluminescence (ECL) kit according to the instructions of the manufacturer (Sigma-Aldrich, St. Louis, MO, USA) using the VersaDoc Imaging System (Bio-Rad, Hercules, CA, USA).
Background: In western blotting, separated proteins are transferred to a membrane and probed.

The nature of data set [6]: DPPH radical scavenging assay (cell-free). The settings on record: 30 min, MeOH. The method, then: The 2,2-diphenyl-1-picryl-hydrazyl-hydrate (DPPH) radical scavenging activity was tested as described previously. The compounds were dissolved in MeOH, and the solutions (120 µL) were dispensed into wells of a 96-well microplate. The DPPH (Sigma-Aldrich, Steinheim, Germany) was dissolved in MeOH at a concentration of 7.5 × 10^−3 M and the solution (30 µL) was added to each well. The concentrations of tested compounds in the mixtures were 10 and 100 µM. Ascorbic acid was used as a positive control. The mixtures were shaken and left for 30 min. The absorbance of the resulting solutions was measured at λ = 520 nm with a MultiscanFC plate reader (Thermo Scientific, Waltham, MA, USA). The concentration scavenging 50% of the DPPH radical (EC50) was calculated for each compound.
A general note: The DPPH test is a chemical assay of radical scavenging.

Data set [7] has as its system histamine release induced by anti-IgE. The note with it: cited from earlier work.
Data set [8] relates to PQ-treated Neuro-2a cells. Kind of data set: Neurite outgrowth estimation in PQ-treated Neuro-2a cells. The format is cell-based, mouse. The method, then:
Neurite outgrowth was studied as described by Li et al.. Neuro-2a cells were seeded in 6-well plates (1.6 × 10^5 cells/well) in DMEM medium containing 10% fetal bovine serum (Biolot, St. Peterburg, Russia) and 1% penicillin/streptomycin (Invitrogen, Carlsbad, CA, USA). The next day, this growth media was changed with serum-free DMEM media containing 1% penicillin/streptomycin, and cells were treated with studied compounds at a concentration of 10 µM for 1 h. After that, PQ (500 µM) was added and cells were incubated during 24 h. Cells incubated without PQ and compounds and with PQ alone were used as positive and negative controls, respectively.
For each well, approximately 10 images were acquired randomly by scanning the wells from left to right and top to bottom using the AxioImager A1 microscope (CarlZeiss, Oberkochen, Germany). A total of ten random fields (near 350 cells in each) for each experimental group were scored for neurite outgrowth. The number of neurite-bearing cells and lengths of the individual neurites for each cell were measured using the AxioVision 4.7.1 software (CarlZeiss, Oberkochen, Germany). Length was defined as the straight-line distance from the tip of the neurite to the junction between the cell body and neurite base. In the case of branched neurites, the length of the longest branch was measured from the tip of the neurite to the cell body. In each experimental group, the average length of neurites was calculated, as well as the average number of neurites per one cell.

The mark [9] stands for this setting: cells incubated with compound 10 µM and PQ 500 µM.
Where [10] appears, read: compound 10 µM 1 h, then PQ 500 µM 24 h.

Where only a bound is given, the exact number is not on record here.

One may read the IC50 as the midpoint of a concentration-inhibition curve. Read a low IC50 as greater potency in that assay. The EC50 is the concentration that produces a half-maximal response.

Consider `CC(=O)O[C@H]1CC[C@]2(C)C3=C(CC[C@H]2C1(C)C)[C@]1(C(=O)O)CC[C@H]([C@H](C)CCC=C(C)C)[C@@]1(C)CC3` [Compound 5, acetylpenasterol], for which the “increase of intensity of TMRM fluorescence (PQ-induced mitochondrial dysfunction diminished)” value in [1] came out at 35%. The “decrease of fluorescence of PI-straining cells” value in data set [2] (compound 1 μM pre-incubation) came out at 20%. Also, the “decrease of fluorescence of PI-straining cells” value in [2] (compound 10 μM pre-incubation) was determined as 24%. Moreover, in data set [3] (Neuro-2a cell viability, 10 μM, read-out: Cytotoxicity (MTT Assay) % of Control at 10 μM), the activity at 24 h, 10 µM is 97.9 ± 3.3%. In [3] (Neuro-2a cells), the IC50 at 24 h is above 100 µM. Besides, the death of cells with Neuro-2a cells is 45.6%. The “concentrations at which ROS content in PQ-treated cells was reduced” value in [4] is “effective at concentrations of 1 and 10 μM”. Also, the “effect on Hsp70 level in PQ-treated cells” value in [5] is “raised it to the initial level”. The half-maximal effective concentration (EC50) in [6] was above 100 µM. In data set [7], the “inhibition of histamine release induced by anti-IgE” value is recorded as “inhibitors of histamine release”. In data set [8] (setting [9]), the “proportion of neurites with a length of 0–4.99 µm in the total number” value was 6.4% and the “proportion of neurites with a length of 10.00–14.99 µm in the total number” value was 20.7%. Also, in data set [8] (setting [10]), the “increase in the average number of neurites per cell” value was 20% and the “increase of neurites-bearing cell amount compared to PQ-treated control” value is 144%.

Source of the values: PMC7698842, “Lanostane Triterpenoid Metabolites from a Penares sp. Marine Sponge Protect Neuro-2a Cells against Paraquat Neurotoxicity” (Molecules, 2020).
